In assay [1] the target is T1, Progesterone receptor (Rattus norvegicus) (UniProt Q63449).
T1 sequence (whole entry): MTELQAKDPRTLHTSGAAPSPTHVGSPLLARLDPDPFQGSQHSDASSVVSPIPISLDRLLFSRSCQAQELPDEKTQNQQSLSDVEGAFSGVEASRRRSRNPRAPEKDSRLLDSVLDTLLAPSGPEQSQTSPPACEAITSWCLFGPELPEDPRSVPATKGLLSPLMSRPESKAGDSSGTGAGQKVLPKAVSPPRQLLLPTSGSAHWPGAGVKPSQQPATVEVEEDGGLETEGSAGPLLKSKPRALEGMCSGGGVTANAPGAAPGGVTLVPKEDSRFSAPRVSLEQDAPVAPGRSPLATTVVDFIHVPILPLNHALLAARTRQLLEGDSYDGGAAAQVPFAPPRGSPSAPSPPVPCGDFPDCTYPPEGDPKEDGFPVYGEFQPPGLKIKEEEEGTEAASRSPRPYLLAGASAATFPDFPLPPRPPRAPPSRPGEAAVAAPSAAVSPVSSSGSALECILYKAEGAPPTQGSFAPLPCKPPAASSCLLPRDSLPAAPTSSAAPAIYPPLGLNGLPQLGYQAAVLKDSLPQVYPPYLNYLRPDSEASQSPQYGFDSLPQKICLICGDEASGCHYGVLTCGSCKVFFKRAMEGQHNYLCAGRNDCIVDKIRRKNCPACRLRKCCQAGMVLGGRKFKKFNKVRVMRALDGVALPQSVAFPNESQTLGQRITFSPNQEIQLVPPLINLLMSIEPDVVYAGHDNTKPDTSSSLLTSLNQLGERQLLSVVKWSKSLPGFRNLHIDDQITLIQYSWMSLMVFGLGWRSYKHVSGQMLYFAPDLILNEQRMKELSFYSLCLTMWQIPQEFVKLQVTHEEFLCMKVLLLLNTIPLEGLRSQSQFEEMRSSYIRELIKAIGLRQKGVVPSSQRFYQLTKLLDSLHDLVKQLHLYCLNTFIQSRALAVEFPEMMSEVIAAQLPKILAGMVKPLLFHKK
In words: Binding affinity for cytosolic progesterone receptor (PRc) of rat uterus compared to RU-486.

The target in assay [2] is T2, Progesterone receptor (Rattus norvegicus, UniProt Q63449).
T2 sequence (Q63449 whole entry): T1 sequence (whole entry)
In words: Inhibition of [3H]R5020 binding to cytosolic progesterone receptor (PRc) of rat uterus.

For `CC#C[C@]1(O)CC[C@H]2[C@@H]3CCC4=CC(=O)CCC4=C3[C@@H](c3ccc(N(C)C)cc3)C[C@@]21C`, the relative binding affinity (RBA) in assay [1] was found to be 100.

A word on the IC50: it is the concentration needed to halve the response being measured. As to `C[C@]12CCC3C(CCC4=CC(=O)CC[C@@H]43)C1CC[C@@]2(O)C(F)(F)F` (some centres not stated), the relative binding affinity (RBA) in assay [1] was 292. Further, the IC50 in assay [2] turned out to be 1.2 nM.

In assay [1], `C[C@]12CCC3=C4CCC(=O)C=C4CCC3C1CC[C@@]2(O)C(F)(F)F` (some centres not stated) displayed a relative binding affinity (RBA) of 77.8. Besides, the IC50 in assay [2] was determined as 4.5 nM.

`C[C@]12C=CC3=C4CCC(=O)C=C4CCC3C1CC[C@@]2(O)C(F)(F)F` (some centres not stated): the relative binding affinity (RBA) in assay [1] came out at 38.9. The IC50 in assay [2] amounted to 9 nM.

The record behind these values is ChEMBL document CHEMBL1151558, “An efficient synthesis and biological activities of 19-nor-17-hydroxy-17-trifluoromethyl-4-estren-3-one and its analogs” (Bioorg Med Chem Lett, 1995).
